Test results from paper PMC13596996 (Cell, 2026).

Tested on: GABAA receptor
Experiment: whole-cell voltage-clamp, dose-response, blocked by gabazine
Parameters: species or system Mus musculus

- EC50: 134 µM
Structure (SMILES): [H]/N=C(/N)NCC(=O)O [GAA, guanidinoacetate]
